Data published in patent US9115120B2, “Heterocyclic modulators of HIF activity for treatment of disease” (Board of Regents, The University of Texas System, priority 2012, dated 2015).
Structures can show the parent of a compound that is named as a salt.

System: 293T-HRE-GFP-luc cells
Assay: Cell-Based Reporter Assay for IC50 Determinations
Conditions: 30 min normoxia then 6 hrs hypoxia (1% O2), luminescence, four-parameter logistic fit, read-out: Activity (IC50, HRE luciferase reporter)
Procedure: Cell-Based Reporter Assay for IC50 Determinations
293T-HRE-GFP-luc cells were routinely maintained in DMEM media (high glucose version with GlutaMAX and HEPES, Gibco, catalog #10564) supplemented with 10% fetal bovine serum and 2 μg/mL puromycin (Invitrogen, catalog #A11138-03) using a humidified incubator (normoxia conditions consisting of 37° C., 5% CO2 and ambient O2).
In preparation for the reporter assay, cells were harvested and resuspended in DMEM media (high glucose version with GlutaMAX and HEPES) supplemented with 10% fetal bovine serum. Cells were inoculated into 384-well white Culturplates (Perkin Elmer catalog #6007680) at a density of 12,000 cells/well in a volume of […]. The microplates were incubated overnight (approximately 17-19 hours) at 37° C. with 5% CO2 and ambient O2. Stock solutions of the test compounds were prepared in DMSO (Sigma, Catalog #D2650) and serially diluted 1:3 using DMSO. Compounds were additionally diluted (1:50) with culturemedium and 10 µL were added per well to the Culturplate. Following a 30 min. incubation under normoxia conditions, the plates were incubated in hypoxia for 6 hrs. (37° C., 5% CO2 and 1% O2). Steadylite Plus (Perkin Elmer, catalog #6016751) was then added ([…]), the plates were mixed on an orbital shaker at room temperature in the dark for 15 min., and luminescence was measured using an Envision plate reader (Perkin Elmer). IC50 values were calculated using a four-parameter logistic curve fit. Results are shown below in Table 2; ND indicates no data.

With `Cc1nc(-c2nc(-c3ccc(OC(F)(F)F)cc3)no2)oc1Cc1cccc(Br)c1` [Example 1, 5-(5-(3-Bromobenzyl)-4-methyloxazol-2-yl)-3-(4-(trifluoromethoxy)phenyl)-1,2,4-oxadiazole] the IC50 was 1 to 10 µM.

`Cc1nc(-c2nc(-c3ccc(OC(F)(F)F)cc3)no2)sc1Cc1cccc(N2CCN(C)CC2)c1` [Example 2, 5-(4-Methyl-5-(3-(4-methylpiperazin-1-yl)benzyl)thiazol-2-yl)-3-(4-(trifluoromethoxy)phenyl)-1,2,4-oxadiazole] gave an IC50 of less than 0.1 µM.

`Cc1nc(-c2nc(-c3ccccc3)co2)sc1Cc1cccc(N2CCN(C)CC2)c1` [Example 3, 2-(4-Methyl-5-(3-(4-methylpiperazin-1-yl)benzyl)thiazol-2-yl)-4-phenyloxazole] was tested, and the IC50 was 1 to 10 µM.

For `Cc1oc(-c2nc(-c3ccc(OC(F)(F)F)cc3)no2)nc1Cc1cccc(Br)c1` [Example 4, 5-(4-(3-Bromobenzyl)-5-methyloxazol-2-yl)-3-(4-(trifluoromethoxy)phenyl)-1,2,4-oxadiazole], the IC50 was 1 to 10 µM.

`Cc1oc(-c2nc(-c3ccc(OC(F)(F)F)cc3)no2)nc1Cc1cccc(N2CCN(C)CC2)c1` [Example 5, 1-methyl-4-(3-((5-methyl-2-(3-(4-(trifluoromethoxy)phenyl)-1,2,4-oxadiazol-5-yl)oxazol-4-yl)methyl)phenyl)piperazin-1-ium trifluoroacetate] was tested, and the IC50 was less than 0.1 µM.

In the case of `Cc1sc(-c2nc(-c3ccc(OC(F)(F)F)cc3)no2)nc1Cc1cccc(N2CCN(C)CC2)c1` [Example 6, 1-methyl-4-(3-((5-methyl-2-(3-(4-(trifluoromethoxy)phenyl)-1,2,4-oxadiazol-5-yl)thiazol-4-yl)methyl)phenyl)piperazin-1-ium trifluoroacetate], the IC50 is reported as less than 0.1 µM.

`Cc1nc(-c2nc(-c3ccc(OC(F)(F)F)cc3)no2)oc1Cc1cccc(N2CCN(C)CC2)c1` [Example 7, 1-Methyl-4-(3-((4-methyl-2-(3-(4-(trifluoromethoxy)phenyl)-1,2,4-oxadiazol-5-yl)oxazol-5-yl)methyl)phenyl)piperazin-1-ium trifluoroacetate] gave an IC50 of less than 0.1 µM.

Work on `Cn1nc(-c2nc(-c3ccc(OC(F)(F)F)cc3)no2)nc1Cc1ccnc(N2CCNCC2)c1` [Example 8, 4-(4-((1-Methyl-3-(3-(4-(trifluoromethoxy)phenyl)-1,2,4-oxadiazol-5-yl)-1H-1,2,4-triazol-5-yl)methyl)pyridin-2-yl)piperazin-1-ium formate] yielded an IC50 of less than 0.1 µM.

Work on `CN1CCN(c2cc(Cc3nc(-c4nc(-c5ccc(OC(F)(F)F)cc5)no4)nn3C)ccn2)CC1` [Example 9, 1-Methyl-4-(4-((1-methyl-3-(3-(4-(trifluoromethoxy)phenyl)-1,2,4-oxadiazol-5-yl)-1H-1,2,4-triazol-5-yl)methyl)pyridin-2-yl)piperazin-1-ium formate] yielded an IC50 of less than 0.1 µM.

For `CN1CCN(c2cc(Cc3nc(-c4nc(-c5ccc(OC(F)(F)F)cc5)no4)cn3C)ccn2)CC1` [Example 10, 5-(1-Methyl-2-((2-(4-methylpiperazin-1-yl)pyridin-4-yl)methyl)-1H-imidazol-4-yl)-3-(4-(trifluoromethoxy)phenyl)-1,2,4-oxadiazole], the IC50 was less than 0.1 µM.

With `Cc1oc(-c2nc(-c3ccc(OC(F)(F)F)cc3)no2)nc1Cc1cccc(N2CCOCC2)c1` [Example 11, 4-(3-((5-Methyl-2-(3-(4-(trifluoromethoxy)phenyl)-1,2,4-oxadiazol-5-yl)oxazol-4-yl)methyl)phenyl)morpholine] the IC50 was less than 0.1 µM.

With `Cn1cc(-c2nc(-c3ccc(OC(F)(F)F)cc3)no2)nc1Cc1ccnc(N2CCNCC2)c1` [Example 12, 4-(4-((1-methyl-4-(3-(4-(trifluoro-methoxy)phenyl)-1,2,4-oxadiazol-5-yl)-1H-imidazol-2-yl)methyl)pyridin-2-yl)piperazin-1-ium formate] the IC50 was 1 to 10 µM.

Compound `Cc1oc(-c2nc(-c3ccc(OC(F)(F)F)cc3)no2)nc1Cc1cccc(N2CCCCC2)c1` [Example 13] has an IC50 of less than 0.1 µM.

`Cc1oc(-c2nc(-c3ccc(OC(F)(F)F)cc3)no2)nc1Cc1cccc(N(C)C)c1` [Example 14, N,N-dimethyl-3-((5-methyl-2-(3-(4-(trifluoromethoxy)phenyl)-1,2,4-oxadiazol-5-yl)oxazol-4-yl)methyl)aniline] was tested, and the IC50 was less than 0.1 µM.
